According to US8758816B2, “Compositions comprising azelastine and methods of use thereof” (priority 2004, dated 2014):

Columns and labels:
[1] = system: patients with seasonal allergic rhinitis (SAR); experiment: MP 428 study: Adult Rhinoconjunctivitis Quality of Life Questionnaire outcomes, change from baseline; type: in vivo, human; conditions: Day 14/ET; Intent-to-Treat Population
[2] = system: patients with seasonal allergic rhinitis (SAR); experiment: MP 428 study: adverse events, Safety Population; type: in vivo, human
Method: A two-week, randomized, double-blind study, which evaluated the effects of the co-administration of ASTELIN® (azelastine hydrochloride (HCl)) and FLONASE® (fluticasone propionate) compared to either product alone in patients with seasonal allergic rhinitis (SAR) was conducted during the 2006 Texas mountain cedar season. After a 5-day placebo lead-in period, 151 patients with moderate-to-severe allergic rhinitis symptoms were randomized to either: (1) (49 total patients) ASTELIN® (azelastine hydrochloride (HCl)) plus placebo saline nasal spray 2 sprays per nostril, 15 minutes apart, twice daily (AM & PM); (2) (50 total patients) FLONASE® (fluticasone propionate) plus placebo saline nasal spray, 2 sprays per nostril, 15 minutes apart, once daily (AM) and two sessions of placebo saline nasal spray, 2 sprays per nostril, 15 minutes apart (PM); or (3) (52 total patients) the co-administration of ASTELIN® (azelastine hydrochloride (HCl)) 2 sprays per nostril plus FLONASE® (fluticasone propionate) 2 sprays per nostril (AM), 15 minutes apart, and ASTELIN® (azelastine hydrochloride (HCl)) 2 sprays per nostril plus placebo saline nasal spray, 15 minutes apart, (PM) for a 2-week double-blind treatment period.
The most common adverse events (AEs) were bitter taste (8.2% in ASTELIN® (azelastine hydrochloride (HCl)) group, 2.0% in FLONASE® (fluticasone propionate) group, 13.5% in co-administration group) and headache (4.1% in ASTELIN® (azelastine hydrochloride (HCl)) group, 4.0% in FLONASE® (fluticasone propionate) group, 5.8% in co-administration group). No other AE was reported by more than one patient in any treatment group. There were no discontinuations due to AEs.

[3] = Possibly related to study drug, Safety Population
[4] = Probably related to study drug, Safety Population

`CCC(=O)O[C@]1(C(=O)SCF)[C@H](C)C[C@H]2[C@@H]3C[C@H](F)C4=CC(=O)C=C[C@]4(C)[C@@]3(F)[C@@H](O)C[C@@]21C` [Fluticasone, fluticasone propionate] was tested, and the “RQLQ Change From Baseline in Activity, LS Mean” value [1] was −1.52, the “RQLQ Change From Baseline in Activity, Mean” value [1] was −1.50 and the “RQLQ Change From Baseline in Activity, Median” value [1] was −1.33. The “RQLQ Change From Baseline in Emotional, LS Mean” value [1] was −1.42, the “RQLQ Change From Baseline in Emotional, Mean” value [1] was −1.50 and the “RQLQ Change From Baseline in Emotional, Median” value [1] was −1.25. The “RQLQ Change From Baseline in Eye Symptoms, LS Mean” value [1] was −1.51, the “RQLQ Change From Baseline in Eye Symptoms, Mean” value [1] was −1.53 and the “RQLQ Change From Baseline in Eye Symptoms, Median” value [1] was −1.75. The “RQLQ Change From Baseline in Nasal Symptoms, LS Mean” value [1] was −1.72, the “RQLQ Change From Baseline in Nasal Symptoms, Mean” value [1] was −1.74 and the “RQLQ Change From Baseline in Nasal Symptoms, Median” value [1] was −1.50. For the same molecule, the “RQLQ Change From Baseline in Non-nose/eye Symptoms, LS Mean” value [1] was −1.19, the “RQLQ Change From Baseline in Non-nose/eye Symptoms, Mean” value [1] was −1.23 and the “RQLQ Change From Baseline in Non-nose/eye Symptoms, Median” value [1] was −1.14. The “RQLQ Change From Baseline in Overall Score, LS Mean” value [1] was −1.47, the “RQLQ Change From Baseline in Overall Score, Mean” value [1] was −1.49 and the “RQLQ Change From Baseline in Overall Score, Median” value [1] was −1.37. For the same molecule, the “RQLQ Change From Baseline in Practical Problems, LS Mean” value [1] was −1.74, the “RQLQ Change From Baseline in Practical Problems, Mean” value [1] was −1.76 and the “RQLQ Change From Baseline in Practical Problems, Median” value [1] was −1.67. For the same molecule, the “RQLQ Change From Baseline in Sleep, LS Mean” value [1] was −1.23, the “RQLQ Change From Baseline in Sleep, Mean” value [1] was −1.26 and the “RQLQ Change From Baseline in Sleep, Median” value [1] was −1.33. The “Primary Reason for Discontinuation From Study: Adverse Event” value ([2]; All Randomized Patients) was 0 (0.0) N (%), the “Number (%) Patients With Treatment-Related AEs by Maximum Severity” value ([2]; Mild) was 3 (6.0) Number (%) and the “Number (%) Patients With Treatment-Related AEs by Maximum Severity” value ([2]; Moderate) was 1 (2.0) Number (%). The “Treatment-Related Adverse Events: Any Adverse Event” value [2, 3] was 4 (8.0) No. of Patients (%), the “Treatment-Related Adverse Events: DRY MOUTH” value [2, 3] was 1 (2.0) No. of Patients (%) and the “Treatment-Related Adverse Events: DYSGEUSIA” value [2, 3] was 1 (2.0) No. of Patients (%). The “Treatment-Related Adverse Events: EPISTAXIS” value [2, 3] was 0 (0.0) No. of Patients (%), the “Treatment-Related Adverse Events: GASTROINTESTINAL DISORDERS, Any Preferred Term” value [2, 3] was 3 (6.0) No. of Patients (%) and the “Treatment-Related Adverse Events: HEADACHE” value [2, 3] was 1 (2.0) No. of Patients (%). The “Treatment-Related Adverse Events: NASAL DISCOMFORT” value [2, 3] was 0 (0.0) No. of Patients (%), the “Treatment-Related Adverse Events: NERVOUS SYSTEM DISORDERS, Any Preferred Term” value [2, 3] was 1 (2.0) No. of Patients (%) and the “Treatment-Related Adverse Events: RESPIRATORY, THORACIC AND MEDIASTINAL DISORDERS, Any Preferred Term” value [2, 3] was 0 (0.0) No. of Patients (%). The “Treatment-Related Adverse Events: STOMACH DISCOMFORT” value [2, 3] was 1 (2.0) No. of Patients (%), the “Treatment-Related Adverse Events: Any Adverse Event” value [2, 4] was 0 (0.0) No. of Patients (%) and the “Treatment-Related Adverse Events: DRY MOUTH” value [2, 4] was 0 (0.0) No. of Patients (%). For the same molecule, the “Treatment-Related Adverse Events: DYSGEUSIA” value [2, 4] was 0 (0.0) No. of Patients (%), the “Treatment-Related Adverse Events: EPISTAXIS” value [2, 4] was 0 (0.0) No. of Patients (%) and the “Treatment-Related Adverse Events: GASTROINTESTINAL DISORDERS, Any Preferred Term” value [2, 4] was 0 (0.0) No. of Patients (%). The “Treatment-Related Adverse Events: HEADACHE” value [2, 4] was 0 (0.0) No. of Patients (%), the “Treatment-Related Adverse Events: NASAL DISCOMFORT” value [2, 4] was 0 (0.0) No. of Patients (%) and the “Treatment-Related Adverse Events: NERVOUS SYSTEM DISORDERS, Any Preferred Term” value [2, 4] was 0 (0.0) No. of Patients (%). The “Treatment-Related Adverse Events: RESPIRATORY, THORACIC AND MEDIASTINAL DISORDERS, Any Preferred Term” value [2, 4] was 0 (0.0) No. of Patients (%), the “Treatment-Related Adverse Events: STOMACH DISCOMFORT” value [2, 4] was 0 (0.0) No. of Patients (%) and the “Number (%) Patients With Any AEs: All Treatment-Related AEs” value ([2]; Safety Population) was 4 (8.0) Number (%). For the same molecule, the “Number (%) of Deaths” value ([2]; Safety Population) was 0 (0.0) Number (%), the “Number (%) of Patients With Serious AEs” value ([2]; Safety Population) was 0 (0.0) Number (%) and the “Number of Adverse Events Reported: All Treatment-Emergent AEs” value ([2]; Safety Population) was 5. The “Number of Adverse Events Reported: All Treatment-Related AEs” value ([2]; Safety Population) was 4, the “Number (%) Patients With Treatment-Related AEs by Maximum Severity” value ([2]; Severe) was 0 (0.0) Number (%) and the “Treatment-Emergent AE: Any Adverse Event” value ([2]; Total) was 5 (10.0) No. of Patients (%). For the same molecule, the “Treatment-Emergent AE: DRY MOUTH” value ([2]; Total) was 1 (2.0) No. of Patients (%), the “Treatment-Emergent AE: DYSGEUSIA” value ([2]; Total) was 1 (2.0) No. of Patients (%) and the “Treatment-Emergent AE: EAR AND LABYRINTH DISORDERS, Any Preferred Term” value ([2]; Total) was 0 (0.0) No. of Patients (%). For the same molecule, the “Treatment-Emergent AE: EAR PAIN” value ([2]; Total) was 0 (0.0) No. of Patients (%), the “Treatment-Emergent AE: EPISTAXIS” value ([2]; Total) was 0 (0.0) No. of Patients (%) and the “Treatment-Emergent AE: GASTROINTESTINAL DISORDERS, Any Preferred Term” value ([2]; Total) was 3 (6.0) No. of Patients (%). The “Treatment-Emergent AE: HEADACHE” value ([2]; Total) was 2 (4.0) No. of Patients (%), the “Treatment-Emergent AE: MUSCULOSKELETAL AND CONNECTIVE TISSUE DISORDERS, Any Preferred Term” value ([2]; Total) was 0 (0.0) No. of Patients (%) and the “Treatment-Emergent AE: MYALGIA” value ([2]; Total) was 0 (0.0) No. of Patients (%). For the same molecule, the “Treatment-Emergent AE: NASAL DISCOMFORT” value ([2]; Total) was 0 (0.0) No. of Patients (%).
